For this assay, the system named is rat aortic tissues. Put plainly: cGMP levels in aortic rings of old rats incubated with sildenafil and ABH (cGMP EIA). Particulars: sildenafil 0 nM. In kind it is cell-based. The procedure:
The source of tissue was old (22 to 24 months) male Fischer 344 rats purchased from National Institute for Aging (NIA). The rats were anesthetized in an isoflurane chamber and euthanized. The entire length of the aorta (thoracic, arch, abdominal) were dissected out and cleaned free of connective tissue. These aorta were then sectioned into ˜3 mm long rings. Samples were collected from 2 rats and pooled. […] Rings were incubated in varying concentrations of sildenafil (0-2000 nM) and ABH (0-500 nM) prepared in 200 μL Krebs buffer for 10 min at 37° C. The rings were then snap frozen in liquid nitrogen following treatment. The next day, samples were homogenized in 200 μL 6% TCA buffer (prepared by adding TCA to DI water) at 4° C. for extraction of cyclic nucleotides. The samples were then centrifuged at 12,000 rpm for 5 min at 4° C. Protein pellets were re-dissolved in PBS to determine protein concentration, and supernatant was reserved for cGMP detection. […] ABH (MW 211.45): A stock solution of ABH at a concentration of 100 mM was prepared by dissolving 21.1 mg of ABH into 1 ml Krebs solution. This was used to prepare 5 ml of a 1 mM stock. 200 μL of the 1 mM solution were dispensed into column 12 of a 96-well plate. Six 2× dilutions were prepared in the plate. 200 μL Krebs were dispensed in column 5 to get a concentration range of 0-1000 nM (2× of final concentration). Sildenafil (MW 474.5): A stock solution of sildenafil at a concentartion of 100 mM was prepared by dissolving 47.4 mg of sildenafil into 1 ml Krebs solution; 5 ml of 2 mM stock was prepared from this. Row A received 200 μL of Krebs buffer (0 mM sildenafil), mixed well, and adjusted to a final volume of 200 μL. Next, 200 μL of the 2 mM sildenafil stock was dispensed into row H of the 96 well plate already containing the ABH dilutions ([…]). Six 2× dilutions were prepared from this to get the final concentration ranges for the two drugs. cGMP levels were determined with a cGMP kit (Amersham cGMP Enzyme immunoassay Biotrak (EIA) System Cat #RPN226) and run in accordance with the manufacture's recommendations. The assay uses a competitive fluorescent immunoassay format to measure levels of cGMP. It combines the use of a peroxidase-labelled cGMP conjugate, a specific antiserum which can be immobilized on to pre-coated microplates, and a one-pot stabilized substrate solution. […] In the absence of cGMP most of the HRP conjugate is bound to the antibody and yields a high fluorescence. Increasing concentrations of cGMP competitively decreases the binding of the HRP conjugate, decreasing the measured fluorescence (HRP activity). […] The plate was then incubated for 2 hrs at room temperature with shaking after which it is washed and the fluorescent substrate is added. The plate was incubated for an additional 10 min and then read on a Molecular Devices Gemini EM plate reader set at Ex 530 nm, Em 590 nm (endpoint mode). The signal is reported to be stable for up to 24 hrs, but was generally read within 2 hrs. […] These values were calculated based on the resultant ratio of fluorescence reading of sample divided by fluorescense reading with no cGMP (pmols/mg). For each concentration combination of sildenafil and ABH administered to cells, absorbance (OD at 450 nm) was measured. From these values, the absorbance adjusted for non-specific binding (NSB) for each sample (OD-NSB(B)) was determined from the absorbance (B) divided by the absorbance without cGMP (Bo). Using this value and the standard curve for cGMP, the log (fmol) is found and, after adjusting for the quantity of protein, the pmols of cGMP/mg protein is calculated.

Take `N[C@@H](CCCCB(O)O)C(=O)O` [ABH, 2(S)-Amino-6-boronohexanoic acid]: the “Theoretical response T(x,y) based on an additive effect” value (“Theoretical response T(x,y) based” for short) (ABH 7.81 nM) was found to be 0.34 pmol/mg, the “Theoretical response T(x,y) based” value (ABH 31.25 nM) stood at 0.90 pmol/mg, the “Theoretical response T(x,y) based” value (ABH 125 nM) was 1.14 pmol/mg and the “Theoretical response T(x,y) based” value (ABH 500 nM) came out at 0.16 pmol/mg. Also, the “pmols of cGMP/mg protein produced P(x,y)” value reads like this: (ABH 7.81 nM) 0.34 pmols/mg; (ABH 31.25 nM) 0.90 pmols/mg; (ABH 125 nM) 1.14 pmols/mg; (ABH 500 nM) 0.16 pmols/mg.

For the origin of these results see US20120065165A1, “COMPOSITIONS AND METHODS OF TREATING ENDOTHELIAL DISORDERS” (ARGINETIX, INC, priority 2008, published 2012).
